Results as given in US20050009739A1, “Formulation strategies in stabilizing peptides in organic solvents and in dried states” (priority 2002, published 2005).
Ends that are not written are not given here.

Key:
[1] = Stability of PACAP 66 in DMSO at 40° C. in the presence of different metal salts (RP-HPLC recovery, CE purity); type: physicochemical; conditions: 2 mg/mL; for PACAP 66 degraded: 4 weeks, RP-HPLC
Description: Different metal salts, including ZnCl2, MgCl2, and CaCl2 were separately dissolved at 1 mM in DMSO, a non-aqueous organic solvent. PACAP 66 was then dissolved in these solutions at 2 mg/mL. The bulk solution was aliquoted into 2-mL screw-capped (with an o-ring) sterile polypropylene vials. These stability samples were incubated at 40° C. and analyzed at predetermined intervals.
More than 70% of PACAP 66 was degraded in DMSO in 4 weeks at 40° C. by RP-HPLC, but only approximately 10% of PACAP 66 was degraded in the presence of 1 mM ZnCl2 under the same storage conditions. […] The CE results were similar to the findings from the RP-HPLC analysis.

[2] = Stability of acidified, lyophilized PACAP 66 in DMSO at 40° C.; type: physicochemical; conditions: for PACAP 66 degraded: 2 weeks
Description: Several acid solutions were prepared at 0.1%, including HCl, trifluoro acetic acid (TFA), and H3PO4 and cooled to 2-8° C. The cold acid solutions were then mixed with PACAP 66 at a PACAP 66:acid molar ratio of 1:10. After mixing, the cold PACAP 66 solutions were immediately placed inside a precooled freeze-drier and were lyophilized. The lyophilized material was further equilibrated in a desiccator containing P2O5 for at least one day to absorb additional moisture from the lyophilized peptide. The acidified and dried material was then dissolved in DMSO at 2 mg/mL and stability was conducted as described in the upper section.
The recovery of HCl-acidified PACAP 66 at the end of a 2-week period was 97% by RP-HPLC. However, the recovery could be slightly overestimated, as the corresponding purity of PACAP 66 in the sample was only 89% by RP-HPLC.
We understand that peptides can be hydrolyzed readily under acidic conditions in an aqueous solution. […] In the acidification of PACAP 66, the pH of acidified PACAP 66 solution was measured to be 2.2 after addition of TFA. At this pH, PACAP 66 should be rapidly hydrolyzed.

[3] = Stability of PACAP 66 solution at 300 mg/mL in DMSO at 40° C.; type: physicochemical; conditions: 23 weeks
From the text: (§1) To test whether a metal salt would stabilize PACAP 66 at a high peptide concentration in an organic solvent, a high concentration of a metal salt would be required, assuming a fixed ratio of metal and peptide is needed for stabilization. A metal salt, however, has limited solubility in an organic solvent Therefore, a similar preparation method was adopted for sample preparation of peptide-metal mixtures at high concentrations, as described under Acidification and Lyophilization of PACAP 66, supra. Briefly, a metal salt and the peptide were first dissolved at a fixed molar ratio in an aqueous solution. The solution was then aliquoted in 3-mL glass vials at a fixed volume and lyophilized. Stability samples were prepared by adding a fixed amount of an organic solvent in the vial. The sample vials were then capped, sealed, and incubated at 40° C. Stability samples were first diluted to a reasonable concentration before analysis by RP-HPLC or CE. Similarly, a peptide suspension was prepared by mixing a proper amount of an organic solvent in a sample vial containing the lyophilized mixture and incubated at 40° C. Stability of solid PACAP 66 was evaluated directly by incubating the sample vial containing the lyophilized mixture at 40° C.
PACAP 66 in the sample was acidified in the absence and presence of ZnCl2. Approximately 70% of the peptide was degraded in the control sample after storage for 23 weeks, while approximately 20% was degraded in the acidified samples in the presence or absence of ZnCl2.

[4] = Stability of PACAP 66 solution at 20 mg/mL in 1-methyl-2-pyrrolinidone at 40° C.; type: physicochemical; conditions: acidified samples
From the text: as §1
PACAP 66 in the sample was acidified in the absence and presence of ZnCl2.

[5] = Stability of PACAP 66 suspension at 20 mg/mL in 2-propanol at 40° C.; type: physicochemical; conditions: suspension 20 mg/mL in 2-propanol
From the text: as §1

[6] = Stability of PACAP 66 in a lyophilized state at 40° C.; type: physicochemical
From the text: as §1

[7] = Stability of peptide in an aqueous solution; type: physicochemical
[8] = Solubility of peptide in organic solvents; type: physicochemical; conditions: some organic solvents
[9] = pH 4; cited from earlier work

| PACAP 66 degraded ([1]; 1 mM ZnCl2) | PACAP 66 degraded ([1]; control without metal salt) | PACAP 66 degraded ([2]; acidified (HCl, TFA or H3PO4) and lyophilized PACAP 66, DMSO 2 mg/mL) | relative stabilization effect by acids ([2]; acidified and lyophilized PACAP 66 in DMSO) | PACAP 66 degraded ([2]; unprocessed PACAP 66 (control), DMSO 2 mg/mL) | peptide degraded ([3]; acidified (HCl), absence of ZnCl2) | peptide degraded ([3]; acidified (HCl), presence of ZnCl2) | peptide degraded ([3]; control sample) | effect of acidification on stability during storage [6] | effect of different metals on stability ([7]; aqueous solution, 40° C., zinc, magnesium or calcium) | effect of zinc oxide on stability ([7]; aqueous solution, zinc oxide at 10 mM (FIG. 1)) | stability in an aqueous environment ([7]; aqueous, 40° C. (FIG. 1)) | solubility in organic solvents [8] | Substance | stabilizing effect compared with the control ([1]; 1 mM CaCl2) | stabilizing effect compared with the control ([1]; 1 mM MgCl2) | effect of addition of ZnCl2 on stability [4] | effect of addition of ZnCl2 on storage stability [5] | effect of addition of ZnCl2 on stability ([6]; acidified) | stability in an aqueous solution [9] |
| --- | --- | --- | --- | --- | --- | --- | --- | --- | --- | --- | --- | --- | --- | --- | --- | --- | --- | --- | --- |
| approximately 10% | More than 70% | less than 10% | HCl >TFA >H3PO4 | More than 50% | approximately 20% | approximately 20% | Approximately 70% | significantly stabilized the peptide | does not improve its stability | did not stabilize | not stable | dissolved easily | HSDAVFTDNYTRLRKQVAAKKYLQSIKNKRY [PACAP 66] | did not have any significant stabilizing effect | did not have any significant stabilizing effect | seems to stabilize PACAP 66 to a higher degree | significantly improved the storage stability | seems to stabilize the peptide to a higher degree | – |
| – | – | – | – | – | – | – | – | – | – | – | – | – | Secretin: a PACAP-like peptide | – | – | – | – | – | can be degraded easily |
